The values below come from patent publication US11834458B2, “Anti-cancer nuclear hormone receptor-targeting compounds” (Nuvation Bio Inc., priority 2021, dated 2023).

pIC50: −log10 of the molar value. Read-outs that look alike come from different tables or passages of the source.

One assay concerns LNCap cells. The experiment in a line: Cell viability assay, LNCap. It counts as cell-based. Particulars: Homo sapiens, LNCaP, 144 h, read-out: LNCap (GI50, nM). Put shortly: (§1)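 Cells seeded overnight at 37 °C, 5% CO2, with a T0 plate read at compound addition; compounds added in DMSO (final 0.1-0.2%) for 6 days. CellTiterGlo luminescence; inhibition calculated relative to day-0 and vehicle signals, giving GI50/IC50 values.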

A further assay deals with AR (Homo sapiens (Human), UniProt P10275, T878A). The assay is described as follows: AR binding assay. How it is done:
AR binding assay: To assess AR binding, test compound (top dose 10 μM, 4 fold serial dilution, 8 point dose response) and control (progesterone) were transferred to the assay plate. Cytosol from LnCaP cells was added to the plate, followed by addition of radiolabeled ^3H-R1881 at a final concentration of 1 nM. The plate was sealed, and the reaction was incubated at 300 rpm at 4° C. for 24 hrs. Radioligand absorption buffer (10 mM Tris-HCl, pH 7.4; 1.5 mM EDTA; 1 mM DTT; 0.25% charcoal; 0.0025% dextran) was then added to the plate, mixed, and incubated at 4° C. for 15 minutes. The plate was then centrifuged at 3000 rpm for 30 minutes at 4° C. The supernatant was transferred to the scint-tube and Tri-carb was used for scintillation counting. The data was analyzed using GraphPadPrism v5.0 and binding IC50 was determined as the concentration where 50% inhibition of radioligand binding was observed.

The target of assay [1] is full-length androgen receptor (Homo sapiens (Human), UniProt P10275). The assay is described as follows: AR antagonism assay. It counts as cell-based. Particulars: HEK293 cells stably expressing full-length androgen receptor, testosterone 1 nM, 20 h; read-out: AR antagonism. How it is done:
AR antagonism assay: To evaluate AR antagonist activity, test compound was added to the assay plate (top dose 10 μM, 3 fold serial dilution, 10 point dose response). HEK293 cells stably expressing the full-length androgen receptor were seeded at a density of 20,000 cells/well in the assay plate. The assay plate was then incubated at room temperature for 10 minutes and at 37° C., 5% CO2 for 20 minutes. Testosterone was added to the assay plate at 1 nM final concentration and the assay plate incubated at 37° C., 5% CO2 for 20 h. After the incubation period, Steady-glo was added to the assay plate and mixed at room temperature for 20 minutes on an orbital shaker, before reading out on the EnVision plate reader.

Another assay deals with IEC6 cells. The experiment in a line: Cell viability assay, IEC6. In kind it is cell-based. To be noted: Rattus norvegicus, IEC-6, 144 h, read-out: IEC-6 (IC50, nM). Put shortly:
as §1

In a further assay the test system is T47D cells. The experiment in a line: Cell viability assay, T47D. In kind it is cell-based. To be noted: Homo sapiens, T47D, 144 h, read-out: T47D (GI50, nM). How it is done: Cell viability assay: LNCap, 22Rv1, MCF7, MDAMB361, T47D, and IEC6 cells are seeded at a density of 500-2000 cells/well in 96 well plates, and a ‘T0’ (timepoint 0) was included along with the assay plate. The plates are then incubated at 37° C., 5% CO2 in a cell culture incubator overnight. On the next day, the ‘T0’ plate was assayed using CellTiterGlo (Promega, Inc) according to the manufacturer's instructions. The appropriate compounds are diluted in DMSO and added to the assay plate (final DMSO concentration of 0.1-0.2%) on the next day. The assay plates are incubated for 6 days at 37° C., 5% CO2. After the incubation period, the plates are assayed using CellTiterGlo (Promega, Inc) according to the manufacturer's instructions and luminescence was read on the EnVision plate reader. Inhibition of the tested compounds was determined by the following formula: Inhibition rate (%)=(1−(RLU compound−RLU day0)/(RLU control−RLU day0))*100%. GraphPadPrism was used to analyze the data and determine GI50/IC50 values.

The next assay concerns the target GR (Homo sapiens (Human), UniProt P04150). The experiment in a line: GR binding assay. To be noted: cytosol from IM-9 cells, 3H-Dexamethasone 1.5 nM, 4° C. 24 hrs. How it is done: GR binding assay: To assess GR binding, test compound (top dose 1 μM, 4 fold serial dilution, 8 point dose response) and control (dexamethasone) were transferred to the assay plate. Cytosol from IM-9 cells was added to the plate, followed by addition of radiolabeled ^3H-Dexamethasone at a final concentration of 1.5 nM. The plate was sealed, and the reaction was incubated at 300 rpm at 4° C. for 24 hrs. Radioligand absorption buffer (10 mM Tris-HCl, pH 7.4; 1.5 mM EDTA; 1 mM DTT; 0.25% charcoal; 0.0025% dextran) was then added to the plate, mixed, and incubated at 4° C. for 15 minutes. The plate was then centrifuged at […] for 30 minutes at 4° C. The supernatant was transferred to the scint-tube and Tri-carb was used for scintillation counting. The data was analyzed using GraphPadPrism v5.0 and binding IC50 was determined as the concentration where 50% inhibition of radioligand binding was observed.

For assay [2], the target named is Progesterone Receptor (PR)-LBD (Homo sapiens (Human), UniProt P06401). The experiment in a line: PR coactivator antagonist assay. It counts as biochemical. To be noted: 2.5 nM PR-LBD and coactivator peptide, 10 nM progesterone-induced fluorescence response; read-out: PR antagonism. How it is done:
PR coactivator antagonist assay: Test compound (Top dose 10 μM, 4 fold serial dilution, 8 point dose response) and/or vehicle was incubated with the 2.5 nM Progesterone Receptor (PR)-LBD and coactivator peptide for 30 minutes at RT. Determination of the amount of complex formed was read spectrofluorimetrically (excitation: 337 nm, emission: 520/490 nm). Test compound-induced inhibition of 10 nM progesterone-induced fluorescence response by 50 percent or more (≥50%) indicates receptor antagonist activity.

Assay [3] concerns the target Progesterone PR-B receptors (Homo sapiens (Human), UniProt P06401). The assay is described as follows: PR binding assay. To be noted: human breast carcinoma T47D cells, 0.5 nM [3H]Progesterone, 20 hours at 4° C. How it is done: PR binding assay: Progesterone PR-B receptors from human breast carcinoma T47D cells were used in modified Na2HPO4/NaH2PO4 buffer pH 7.4. Compounds were screened at a range of doses (Top dose 40 nM, 4 fold serial dilution, 8 point dose response) and dispensed into the assay plate. Supernatant of 1.2×10^5 cells aliquot were added to the assay plate and incubated with 0.5 nM [^3H]Progesterone for 20 hours at 4° C. Membranes were filtered and washed, the filters were then counted to determine [^3H]Progesterone specifically bound. Binding IC50 was determined as the concentration where 50% inhibition of radioligand binding was observed.

Assay [4] has as its target ligand binding domain of the glucocorticoid receptor (Homo sapiens (Human), UniProt P04150). The experiment in a line: GR antagonism assay. It counts as cell-based. Particulars: HEK293 cells stably expressing GR ligand binding domain, dexamethasone 1.5 nM, 20 h. On the procedure: GR antagonism assay: To evaluate GR antagonist activity, test compound was added to the assay plate (top dose 5 μM, 4 fold serial dilution, 8 point dose response). HEK293 cells stably expressing the ligand binding domain of the glucocorticoid receptor were seeded at a density of 40,000 cells/well in the assay plate. The assay plate was then incubated at 37° C., 5% CO2 for 30 minutes. Dexamethasone was added to the assay plate at 1.5 nM final concentration and the assay plate was incubated at 37° C., 5% CO2 for 20 h. After the incubation period, Dual-glo luciferase reagent was added to the assay plate and mixed at room temperature for 20 minutes on an orbital shaker, before reading out on the EnVision plate reader.

Chain of Progesterone Receptor (PR)-LBD (P06401 679-913, species assumed): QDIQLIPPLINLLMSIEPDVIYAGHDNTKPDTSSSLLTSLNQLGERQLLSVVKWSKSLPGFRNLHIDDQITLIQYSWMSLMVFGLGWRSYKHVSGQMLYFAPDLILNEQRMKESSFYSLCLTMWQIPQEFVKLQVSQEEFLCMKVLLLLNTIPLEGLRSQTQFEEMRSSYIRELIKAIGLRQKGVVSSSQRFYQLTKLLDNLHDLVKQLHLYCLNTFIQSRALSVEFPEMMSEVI
Chain of Progesterone PR-B receptors (P06401 whole entry): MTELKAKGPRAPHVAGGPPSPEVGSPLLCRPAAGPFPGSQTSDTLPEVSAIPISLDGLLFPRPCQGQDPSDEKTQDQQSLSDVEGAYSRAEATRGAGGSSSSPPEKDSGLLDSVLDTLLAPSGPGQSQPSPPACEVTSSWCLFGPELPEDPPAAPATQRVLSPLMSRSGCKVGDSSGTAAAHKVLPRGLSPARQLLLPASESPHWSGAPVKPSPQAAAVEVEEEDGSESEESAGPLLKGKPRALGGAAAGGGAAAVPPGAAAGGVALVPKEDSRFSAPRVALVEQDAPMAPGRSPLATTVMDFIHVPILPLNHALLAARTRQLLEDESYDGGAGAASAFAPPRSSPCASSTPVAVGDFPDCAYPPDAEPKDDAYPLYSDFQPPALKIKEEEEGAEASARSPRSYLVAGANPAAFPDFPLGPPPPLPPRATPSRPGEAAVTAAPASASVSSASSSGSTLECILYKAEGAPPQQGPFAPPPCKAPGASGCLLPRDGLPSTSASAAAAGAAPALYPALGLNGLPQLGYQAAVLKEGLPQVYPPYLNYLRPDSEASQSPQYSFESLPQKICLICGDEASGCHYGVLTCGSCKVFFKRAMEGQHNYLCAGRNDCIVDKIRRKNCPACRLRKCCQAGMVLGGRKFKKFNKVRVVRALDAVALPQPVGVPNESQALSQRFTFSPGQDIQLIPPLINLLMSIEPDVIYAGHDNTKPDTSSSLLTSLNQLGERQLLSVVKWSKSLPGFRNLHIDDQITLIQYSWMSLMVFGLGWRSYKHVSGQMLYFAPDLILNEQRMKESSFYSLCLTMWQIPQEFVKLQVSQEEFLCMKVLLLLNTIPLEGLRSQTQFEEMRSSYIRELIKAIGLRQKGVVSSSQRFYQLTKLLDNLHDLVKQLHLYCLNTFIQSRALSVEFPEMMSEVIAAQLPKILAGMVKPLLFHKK
Chain of full-length androgen receptor (P10275 whole entry): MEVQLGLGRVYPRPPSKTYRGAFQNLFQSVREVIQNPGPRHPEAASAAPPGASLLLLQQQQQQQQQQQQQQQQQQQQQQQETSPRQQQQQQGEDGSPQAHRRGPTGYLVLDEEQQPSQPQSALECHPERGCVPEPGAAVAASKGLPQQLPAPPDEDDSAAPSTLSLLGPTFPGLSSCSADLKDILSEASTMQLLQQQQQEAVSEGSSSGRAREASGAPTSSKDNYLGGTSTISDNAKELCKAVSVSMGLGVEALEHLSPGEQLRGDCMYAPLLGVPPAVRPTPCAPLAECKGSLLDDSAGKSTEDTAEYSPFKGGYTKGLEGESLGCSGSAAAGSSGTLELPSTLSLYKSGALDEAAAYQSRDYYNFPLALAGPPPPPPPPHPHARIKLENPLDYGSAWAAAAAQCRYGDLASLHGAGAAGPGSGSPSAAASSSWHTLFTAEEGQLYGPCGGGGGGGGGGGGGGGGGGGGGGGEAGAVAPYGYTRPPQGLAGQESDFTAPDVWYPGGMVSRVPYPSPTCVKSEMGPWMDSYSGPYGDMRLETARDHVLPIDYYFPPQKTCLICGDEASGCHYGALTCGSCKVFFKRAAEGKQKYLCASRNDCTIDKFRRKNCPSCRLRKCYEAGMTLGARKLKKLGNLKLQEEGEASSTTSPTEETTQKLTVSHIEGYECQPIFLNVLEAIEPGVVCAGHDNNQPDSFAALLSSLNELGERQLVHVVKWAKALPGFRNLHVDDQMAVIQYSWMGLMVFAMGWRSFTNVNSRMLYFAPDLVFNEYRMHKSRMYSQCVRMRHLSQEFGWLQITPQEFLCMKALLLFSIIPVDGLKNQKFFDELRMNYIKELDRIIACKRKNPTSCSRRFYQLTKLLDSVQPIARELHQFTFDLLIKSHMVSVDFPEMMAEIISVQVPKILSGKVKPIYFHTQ
Chain of AR (P10275 whole entry T878A): as the sequence (P10275 whole entry) above, with T878A counted along it
Chain of ligand binding domain of the glucocorticoid receptor (P04150 524-758): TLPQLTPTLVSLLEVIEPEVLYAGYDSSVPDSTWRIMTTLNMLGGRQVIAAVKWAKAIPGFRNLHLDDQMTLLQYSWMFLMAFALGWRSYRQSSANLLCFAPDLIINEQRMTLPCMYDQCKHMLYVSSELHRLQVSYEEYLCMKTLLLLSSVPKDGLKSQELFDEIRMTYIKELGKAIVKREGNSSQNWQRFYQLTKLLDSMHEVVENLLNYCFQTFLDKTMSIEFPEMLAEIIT
Chain of GR (P04150 whole entry): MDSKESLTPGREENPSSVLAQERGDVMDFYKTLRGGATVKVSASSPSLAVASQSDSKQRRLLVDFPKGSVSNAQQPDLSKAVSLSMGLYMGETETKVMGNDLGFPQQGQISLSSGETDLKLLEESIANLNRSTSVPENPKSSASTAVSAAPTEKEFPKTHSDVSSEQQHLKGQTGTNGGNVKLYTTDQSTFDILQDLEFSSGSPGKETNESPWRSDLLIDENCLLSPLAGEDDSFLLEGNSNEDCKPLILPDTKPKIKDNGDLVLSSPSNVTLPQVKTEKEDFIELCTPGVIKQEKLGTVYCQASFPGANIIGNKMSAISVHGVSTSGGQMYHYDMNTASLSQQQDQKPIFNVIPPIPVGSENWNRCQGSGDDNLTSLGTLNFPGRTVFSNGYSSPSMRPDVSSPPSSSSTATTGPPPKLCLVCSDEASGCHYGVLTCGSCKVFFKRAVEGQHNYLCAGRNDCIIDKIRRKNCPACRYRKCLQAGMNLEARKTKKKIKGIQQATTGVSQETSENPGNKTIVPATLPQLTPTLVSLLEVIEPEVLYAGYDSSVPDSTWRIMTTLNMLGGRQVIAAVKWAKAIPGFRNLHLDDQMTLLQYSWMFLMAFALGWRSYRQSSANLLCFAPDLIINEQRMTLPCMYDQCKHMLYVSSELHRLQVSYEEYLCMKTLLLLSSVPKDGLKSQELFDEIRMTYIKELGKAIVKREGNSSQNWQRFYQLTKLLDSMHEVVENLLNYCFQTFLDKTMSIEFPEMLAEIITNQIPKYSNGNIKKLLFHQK

As a reminder, the GI50 is the concentration giving 50% growth inhibition. The term IC50 denotes the concentration at which inhibition is half-maximal. As to `CCc1c2c(nc3ccc(OC(=O)N4CCN(C(=O)CCCCCN(C)c5ccc([C@H]6C[C@@]7(C)[C@@H](CC[C@]7(OC(C)=O)C(C)=O)[C@@H]7CCC8=CC(=O)CCC8=C76)cc5)CC4)cc13)-c1cc3c(c(=O)n1C2)COC(=O)[C@]3(O)CC` [Compound 3, (S)-4,11-diethyl-4-hydroxy-3,14-dioxo-3,4,12,14-tetrahydro-1H-pyrano[3′,4′:6,7]indolizino[1,2-b]quinolin-9-yl 4-(6-((4-((8S,11R,13S,14S,17R)-17-acetoxy-17-acetyl-13-methyl-3-oxo-2,3,6,7,8,11,12,13,14,15,16,17-dodecahydro-1H-cyclopenta[a]phenanthren-11-yl)phenyl)(methyl)amino)hexanoyl)piperazine-1-carboxylate], the GI50 in the assay with LNCap cells and in the assay on T47D cells was 10 to 500 nM in each case. Besides, the pIC50 at AR (cytosol from LnCaP cells, 3H-R1881 1 nM, 4° C. 24 hrs, read-out: AR binding) was more than 8.00; in assay [1], 6.30 to 8.00; at GR, more than 8.00; in assay [2], more than 8.00; in assay [3] it was more than 8.00; in assay [4], 6.30 to 8.00. Besides, the IC50 with IEC6 cells fell in the range of 501 to 1000 nM.

For `CC[C@@]1(O)C(=O)OCc2c1cc1n(c2=O)Cc2cc3c(CN(C)C)c(OC(=O)N4CCN(CCCCCCN(C)c5ccc([C@H]6C[C@@]7(C)[C@@H](CC[C@]7(OC(C)=O)C(C)=O)[C@@H]7CCC8=CC(=O)CCC8=C76)cc5)CC4)ccc3nc2-1` [Compound 5, (S)-10-((dimethylamino)methyl)-4-ethyl-4-hydroxy-3,14-dioxo-3,4,12,14-tetrahydro-1H-pyrano[3′,4′:6,7]indolizino[1,2-b]quinolin-9-yl 4-(6-((4-((8S,11R,13S,14S,17R)-17-acetoxy-17-acetyl-13-methyl-3-oxo-2,3,6,7,8,11,12,13,14,15,16,17-dodecahydro-1H-cyclopenta[a]phenanthren-11-yl)phenyl)(methyl)amino)hexyl)piperazine-1-carboxylate], the GI50 with LNCap cells and in the assay with T47D cells was 10 to 500 nM throughout. Besides, the pIC50 at AR was 6.30 to 8.00; in assay [1], less than 6.00; at GR, more than 8.00; in assay [2], more than 8.00; in [3], more than 8.00; in [4], 6.30 to 8.00. Besides, the IC50 in the assay on IEC6 cells lay within 501 to 1000 nM.
